Columns and labels:
angiotensin II receptor [1] = assay: Screening Potential Angiotensin II Receptor Antagonists in Salt-Depleted Normotensive Rats; type: in vivo, rat (Sprague-Dawley)
Procedure: 2. Test Procedure for Screening Potential Angiotensin II Receptor Antagonists in Salt-Depleted Normotensive Rats
Purpose: This test is designed to detect hypotensive effects of a compound after oral dosing in normotensive animals made renin-dependent by salt depletion.
Method: Male 350-450 g Sprague-Dawley rats are implanted with teflon microcannulae via the middle caudal artery under 20 mg/kg intravenous Brevital® anesthesia and permitted a 4-7 day surgical recovery period. Throughout recovery and testing animals are individually housed unrestrained in standard rat metabolism cages and receive continuous 0.5 ml/h intra-arterial 0.25N saline infusion through a spring-shielded swivelling tether connected to an infusion/blood pressure recording system to maintain arterial cannula patency. Animals are maintained on Low Sodium (0.03%) Purina Rat Chow #5881 throughout the study. After the recovery period animals are given oral 50 mg/kg furosemide (Lasix, Hoechst-Roussel Pharmaceutical) doses on two consecutive days to produce marked diuresis and plasma volume depletion that makes maintenance of normal blood pressure highly dependent on function of the renin-angiotensin-aldosteronesystem. Three hours after the second furosemide dose, rats are given test compound uniformly suspended in 1% methylcellulose (n=3/dose level) or 1 mL 1% methylcellulose vehicle (n=3) orally by gavage and blood pressure is continuously recorded for 24 h using a Buxco computerized data recording system. Compound-induced changes in blood pressure are compared to concurrent vehicle control blood pressures in order to detect drug effect.
Interpretation: Prior to salt depletion, normotensive rats typically show a plasma renin activity (PRA, ng angiotensin I/mL plasma/h, RIA) of 0.7. After the salt-depletion protocol PRA values taken 3 h after the furosemide dose have risen to about 7.4.
Compounds that decrease blood pressure 10 or more mmHg (MAP) compared to concurrent control after oral dosing are considered active in this test. Maximum possible response is about -35 mmHg. […]

angiotensin II receptor [2] = target: T1, angiotensin II receptor (Oryctolagus cuniculus, UniProt P34976)
T1 sequence (P34976 1-359): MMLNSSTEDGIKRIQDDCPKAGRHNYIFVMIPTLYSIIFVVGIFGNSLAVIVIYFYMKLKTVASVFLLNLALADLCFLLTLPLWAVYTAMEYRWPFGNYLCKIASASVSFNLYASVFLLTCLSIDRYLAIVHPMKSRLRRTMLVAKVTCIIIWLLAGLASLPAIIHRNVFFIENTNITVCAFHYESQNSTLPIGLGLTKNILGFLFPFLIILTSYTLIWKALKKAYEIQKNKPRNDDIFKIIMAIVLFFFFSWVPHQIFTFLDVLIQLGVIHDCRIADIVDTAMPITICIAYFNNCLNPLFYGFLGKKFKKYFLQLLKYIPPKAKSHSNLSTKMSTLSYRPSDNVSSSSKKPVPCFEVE
Source text: Inhibition of Angiotensin II Dose-Response in Rabbit Thoracic Aorta:
Purpose: To identify competitive receptor antagonists of an angiotensin II-1 activity, i.e., angiotensin II-induced vasoconstriction in in vitro aortic rings.
Procedure: 1.8 to 2.3 kg New Zealand white rabbits are sacrificed with an intravenous sodium pentobarbital overdose and the thoracic aorta gently dissected free from the aortic root to the level of the diaphragm, into ice cold Krebs bicarbonate buffer. The aorta is gently freed of clots and adventitia and cleanly cut with a scalpel into 5 mm segments. Each ring is suspended from a Gould isotonic force transducer in a tissue bath containing 15 mL oxygenated Krebs bicarbonate buffer regulated at 37° C. Initial tension is adjusted to 4.0 g and equilibrated over three 20-min wash periods to achieve a baseline tension of 3.0 g. Graded angiotensin II doses are given cumulatively to achieve a maximal contraction. Three 20-min washes are performed to remove the initial angiotensin II effect. […]
Analysis: Angiotensin II vasoconstrictor tension in grams is expressed as a percent of maximal contraction for the before and after test compound angiotensin II dose-responses. Angiotensin II ED50 and ED90 values are determined from the angiotensin II dose-response curves generated before and after test compound. […]

angiotensin II receptor [3] = assay: Oral activity in the spontaneously hypertensive rat, as determined in test procedure 2; type: in vivo

**Q.** What does the source list for `CCCCc1nc(Cl)c(CO)n1Cc1ccc(-c2ccccc2-c2nn[nH]n2)cc1` [DuP-753]?
**A.** blood pressure response (angiotensin II receptor [1]; normotensive rats that have not been salt-depleted): does not change; plasma renin activity (PRA) (angiotensin II receptor [1]; salt-depleted rats after DuP-753 treatment, RIA): about 41.4 ng angiotensin I/mL plasma/h; blood pressure decrease (mean arterial pressure, MAP) (angiotensin II receptor [1]; salt-depleted rats, typical response): about 35 mmHg

**Q.** How did the Kb (angiotensin II receptor [2]) turn out when `C[C@@H]1CN(Cc2ccc(-c3ccccc3-c3nn[nH]n3)cc2)C[C@H](C)O1` [cis-2,6-Dimethyl-4-[4-(2'-tetrazolophenyl)phenylmethyl]morpholine] was run?
**A.** 123 nM

**Q.** What about the “maximum mean arterial pressure drop” value (angiotensin II receptor [3]) of the same molecule?
**A.** 31 mm Hg

**Q.** And the oral activity (angiotensin II receptor [3])?
**A.** good oral activity

**Q.** What about the duration (angiotensin II receptor [3]; duration of blood pressure effect) of the same molecule?
**A.** 12 h
